Assay: Production of drug-loaded fibers without SRCC by electrospinning
Settings: PCL in chloroform/acetone
Protocol: The spinning dispersion was prepared by mixing the solid carriers into a 15%, w/w solution of PCL, that was dissolved in a mix of chloroform/acetone, (40/60,w/w). The polymer solution was prepared separately. Therefore, the polymer was added slowly to avoid formation of clumps and subsequently stirred for at least 24 h at room temperature.
The emitter was an assembly of 4 blunt needles (21G) that were surrounded by nitrogen gas saturated with acetone (Figure 3 b)) to avoid bearding at the tip of the needles due to fast evaporation of solvents from the polymer solution. The lateral movement was adapted to the width of the drum collector (0.3 m) at a speed of approx. 0.1 m/s. Working distance (distance between emitter and collector) was 0.2 m and liquid feed rate was kept at 3ml/h for each needle using a syringe pump. A total of 30 ml was spun. The potential was adjusted to approx. -20kV ± 2kV in order to maintain a stable spray. The dimensions of the collector (rotating drum) were 0.3 m in width and a diameter of 0.1 m. The drum was rotated at 500 rpm. The drum was covered with aluminum and finally coated with magnesium-stearate to avoid the product from adhering/sticking to the aluminum foil. The process was constantly supervised. Needles were cleaned and the electric potential was adjusted when necessary to maintain a stable spinning process.

solubility in the spinning solution: too low
SMILES: Nc1nc2c(ncn2COCCO)c(=O)[nH]1 [Acyclovir]

— patent publication EP4567167A1, “ELECTROSPUN FIBERS COMPRISING SURFACE-REACTED CALCIUM CARBONATE AND ACTIVE INGREDIENTS” (Omya International AG, priority 2023, dated 2025)
